Measurements: patent publication US4732970A, “Antitumor amino acid and peptide derivatives of 1,4-bis(aminoalkyl and hydroxy-aminoalkyl)amino)-5,8-dihydroxyanthraquinones” (priority 1986, dated 1988)

System: lymphocytic leukemia P388
Experiment: Lymphocytic Leukemia P388 Test
Assay type: in vivo, BDF1 mice
Details: for Median Survival: BDF1 mice; for T/C × 100 (%): ratio of survival time treated/control
Method: The animals used were BDF1 mice, all of one sex, weighing a minimum of 18 g and all within a 3 g weight range. There were 5 or 6 mice per test group. The tumor transplant was by intraperitoneal injection of 0.5 ml of dilute ascitic fluid containing 10^6 cells of lymphocytic leukemia P388. The test compounds were administered intraperitoneally on days 1, 5 and 9 (relative to tumor inocu-lation) at various doses. The animals were weighed and survivors recorded on a regular basis for 60 days. The median survival time and the ratio of survival time for treated (T)/control (C) animals were calculated.

[1] = dose 0.75 mg/kg intraperitoneally on days 1, 5 and 9
[2] = dose 1.5 mg/kg intraperitoneally on days 1, 5 and 9
[3] = dose 3 mg/kg intraperitoneally on days 1, 5 and 9

SMILES | Median Survival [1] [days] | T/C × 100 (%) [1] [%] | Median Survival [2] [days] | T/C × 100 (%) [2] [%] | Median Survival [3] [days] | T/C × 100 (%) [3] [%]
NCC(=O)NCC(=O)NCC(=O)NCCNc1ccc(NCCNC(=O)CNC(=O)CNC(=O)CN)c2c1C(=O)c1c(O)ccc(O)c1C2=O.O=C(O)C(F)(F)F.O=C(O)C(F)(F)F [Example 60, N,N'-[(9,10-Dihydro-5,8-dihydroxy-9,10-dioxo-1,4-anthracenediyl)bis(imino-2,1-ethanediyl)]bis[glycylglycylglycinamide]bis(trifluoroacetate)] | 19.5 | 177 | 23.0 | 209 | 22.0 | 200
CC(C)C[C@H](NC(=O)[C@H](C)NC(=O)[C@H](C)N)C(=O)NCCNc1ccc(NCCNC(=O)[C@H](CC(C)C)NC(=O)[C@H](C)NC(=O)[C@H](C)N)c2c1C(=O)c1c(O)ccc(O)c1C2=O.O=C(O)C(F)(F)F.O=C(O)C(F)(F)F [Example 68] | 21.0 | 210 | 21.5 | 215 | 22.0 | 220
CC(C)(C)OC(=O)N[C@@H](CO)C(=O)NCCNc1ccc(NCCNC(=O)[C@H](CO)NC(=O)OC(C)(C)C)c2c1C(=O)c1c(O)ccc(O)c1C2=O (relative stereo) [Example 14, [S-(R*,R*)]-N,N'-[(9,10-Dihydro-5,8-dihydroxy-9,10-dioxo-1,4-anthracenediyl)bis[imino-2,1-ethanediylimino-[1-(hydroxymethyl)-2-oxo-2,1-ethanediyl]]]bis-carbamic acid, bis(1,1-dimethylethyl)ester] | 13.5 | 123 | 16.0 | 145 | 17.5 | 159
Br.Br.N=C(N)NCCC[C@H](N)C(=O)NCCNc1ccc(NCCNC(=O)[C@@H](N)CCCNC(=N)N)c2c1C(=O)c1c(O)ccc(O)c1C2=O [Example 86, N,N'-[(9,10-Dihydro-5,8-dihydroxy-9,10-dioxo-1,4-anthracenediyl)bis(imino-2,1-ethanediyl)]-L-arginine, dihydrobromide] | 22.0 | 200 | 27.0 | 245 | 34.5 | 314
C[C@H](N)C(=O)N[C@@H](C)C(=O)N[C@@H](C)C(=O)NCCNc1ccc(NCCNC(=O)[C@H](C)NC(=O)[C@H](C)NC(=O)[C@H](C)N)c2c1C(=O)c1c(O)ccc(O)c1C2=O.O=C(O)C(F)(F)F.O=C(O)C(F)(F)F [Example 73, N,N'-[(9,10-Dihydro-5,8-dihydroxy-9,10-dioxo-1,4-anthracenediyl)bis(imino-2,1-ethanediyl)]bis[L-alanyl-L-alanyl-L-alanine]bis(trifluoroacetate)] | 21.0 | 200 | 24.5 | 233 | 40.0 | 381
CC(C)C[C@H](NC(=O)[C@H](C)NC(=O)OC(C)(C)C)C(=O)NCCNc1ccc(NCCNC(=O)[C@H](CC(C)C)NC(=O)[C@H](C)NC(=O)OC(C)(C)C)c2c1C(=O)c1c(O)ccc(O)c1C2=O [Example 65] | 12.0 | 109 | 12.0 | 109 | 13.5 | 123
Br.Br.CC(C)C[C@H](NC(=O)CNC(=O)CN)C(=O)NCCNc1ccc(NCCNC(=O)[C@H](CC(C)C)NC(=O)CNC(=O)CN)c2c1C(=O)c1c(O)ccc(O)c1C2=O [Example 70, N,N'-[(9,10-Dihydro-5,8-dihydroxy-9,10-dioxo-1,4-anthracenediyl)bis(imino-2,1-ethanediyl)]bis[glycylglycyl-L-leucinamide]dihydrobromide] | 22.0 | 220 | 22.5 | 225 | 44.5 | 445
C[C@H](NC(=O)[C@H](CO)NC(=O)[C@@H](N)CC(=O)OC(C)(C)C)C(=O)NCCNc1ccc(NCCNC(=O)[C@H](C)NC(=O)[C@H](CO)NC(=O)[C@@H](N)CC(=O)OC(C)(C)C)c2c1C(=O)c1c(O)ccc(O)c1C2=O [Example 78, N,N'-[(9,10-Dihydro-5,8-dihydroxy-9,10-dioxo-1,4-anthracenediyl)bis(imino-2,1-ethanediyl)]bis[L-α-aspartyl-L-seryl-L-alaninamide]bis(1,1-dimethylethyl)ester] | 18.0 | 150 | 23.0 | 192 | 22.5 | 188
CC(C)C[C@H](NC(=O)[C@H](C)NC(=O)[C@@H](N)CC(=O)OC(C)(C)C)C(=O)NCCNc1ccc(NCCNC(=O)[C@H](CC(C)C)NC(=O)[C@H](C)NC(=O)[C@@H](N)CC(=O)OC(C)(C)C)c2c1C(=O)c1c(O)ccc(O)c1C2=O [Example 82, N,N'-[(9,10-Dihydro-5,8-dihydroxy-9,10-dioxo-1,4-anthracenediyl)bis(imino-2,1-ethanediyl)]bis[L-α-aspartyl-L-alanyl-L-leucinamide]bis(1,1-dimethylethyl)ester] | 21.0 | 191 | 19.0 | 173 | 19.0 | 173
C[C@H](NC(=O)[C@H](CO)NC(=O)[C@H](CC(=O)OC(C)(C)C)NC(=O)OCC1c2ccccc2-c2ccccc21)C(=O)NCCNc1ccc(NCCNC(=O)[C@H](C)NC(=O)[C@H](CO)NC(=O)[C@H](CC(=O)OC(C)(C)C)NC(=O)OCC2c3ccccc3-c3ccccc32)c2c1C(=O)c1c(O)ccc(O)c1C2=O [Example 77, N,N'-[(9,10-Dihydro-5,8-dihydroxy-9,10-dioxo-1,4-anthracenediyl)bis(imino-2,1-ethanediyl)]bis[N-[(9H-fluoren-9-ylmethoxy)carbonyl]-L-α-aspartyl-L-seryl-L-alaninamide]bis(1,1-dimethylethyl)ester] | 20.0 | 167 | 20.0 | 167 | 22.5 | 188
C[C@H](NC(=O)[C@@H](N)CO)C(=O)NCCNc1ccc(NCCNC(=O)[C@H](C)NC(=O)[C@@H](N)CO)c2c1C(=O)c1c(O)ccc(O)c1C2=O.O=C(O)C(F)(F)F.O=C(O)C(F)(F)F [Example 76, N,N'-[(9,10-Dihydro-5,8-dihydroxy-9,10-dioxo-1,4-anthracenediyl)bis(imino-2,1-ethanediyl)]bis[L-seryl-L-alaninamide]bis(trifluoroacetate)] | 22.0 | 183 | 22.5 | 188 | 22.5 | 188
O=C(CNC(=O)OCc1ccccc1)N[C@@H](Cc1ccccc1)C(=O)NCCNc1ccc(NCCNC(=O)[C@H](Cc2ccccc2)NC(=O)CNC(=O)OCc2ccccc2)c2c1C(=O)c1c(O)ccc(O)c1C2=O [Example 53] | 18.5 | 168 | 17.5 | 159 | 19.0 | 173
Br.Br.C[C@H](NC(=O)[C@H](CO)NC(=O)[C@H](CCCNC(=N)N)NC(=O)OCc1ccccc1)C(=O)NCCNc1ccc(NCCNC(=O)[C@H](C)NC(=O)[C@H](CO)NC(=O)[C@H](CCCNC(=N)N)NC(=O)OCc2ccccc2)c2c1C(=O)c1c(O)ccc(O)c1C2=O [Example 93, N,N'-[(9,10-Dihydro-5,8-dihydroxy-9,10-dioxo-1,4-anthracencdiyl)bis(imino-2,1-ethanediyl)][L-alanyl-L-seryl-carbobenzyloxy-L-argininamide]dihydrobromide] | 22.0 | 200 | 22.5 | 205 | 24.5 | 223
